The assay concerns the target T1, human IL-17AA (Homo sapiens, UniProt Q16552).
T1 construct: host or cells: HEK (human embryonic kidney) cells
T1 sequence (Q16552 24-155) 1: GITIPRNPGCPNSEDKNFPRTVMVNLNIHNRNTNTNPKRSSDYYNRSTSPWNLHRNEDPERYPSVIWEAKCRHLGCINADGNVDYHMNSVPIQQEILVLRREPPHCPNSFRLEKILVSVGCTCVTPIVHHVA
T1 sequence (Q16552 24-155) 2: T1 sequence (Q16552 24-155) 1
The assay is described as follows: IL-8 release assay in human epithelial keratinocytes adult (HEKa). The format is cell-based. Particulars: 3 ng/ml human IL-17AA + 10 ng/ml human TNFalpha, 68-72 h, IL-8 by HTRF, read-out: Rel EC50 L-8 release assay. The method in brief:
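IL-8 secretion, quantified by HTRF (665/620 nm) as percent of controls, served as the readout after 68–72 h culture of HEKa cells with compound plus IL-17AA (3 ng/ml final) and TNF-alpha (10 ng/ml final). Four-parameter logistic curves gave relative IC50 and Emax.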

Take `CC(C)n1cc(-c2ccc(Cl)c(CC(NC(=O)OC3CCC3)C(=O)Nc3ccc(-c4nncn4C)cc3)c2)ccc1=O` (centres unmarked) [Example 105, cyclobutyl N-[1-[[2-chloro-5-(1-isopropyl-6-oxo-3-pyridyl)phenyl]methyl]-2-[4-(4-methyl-1,2,4-triazol-3-yl)anilino]-2-oxo-ethyl]carbamate]: the EC50 was in the range of 0.1 to 1 µM. As for `CC(c1cc(-c2ccc(=O)n(C(C)C)c2)ccc1Cl)C(NC(=O)c1ccnn1C)C(=O)Nc1ccc(-c2cncn2C)cc1` (centres unmarked) [Example 55, N-[2-[2-chloro-5-(1-isopropyl-6-oxo-3-pyridyl)phenyl]-1-[[4-(3-methylimidazol-4-yl)phenyl]carbamoyl]propyl]-2-methyl-pyrazole-3-carboxamide], the figure is greater than 1 µM; as for `Cc1cnn(C)c1-c1ccc(NC(=O)[C@H](Cc2cc(-c3ccc(=O)n(C(C)C)c3)ccc2Cl)NC(=O)CC2CC2)cc1` [Example 336, (2S)-3-[2-chloro-5-(1-isopropyl-6-oxo-3-pyridyl)phenyl]-2-[(2-cyclopropylacetyl)amino]-N-[4-(2,4-dimethylpyrazol-3-yl)phenyl]propanamide], 0.1 to 1 µM; as for `Cc1cnn(C)c1-c1ccc(NC(=O)[C@@H](NC(=O)c2ccnn2C)[C@@H]2CCc3ccc(-c4cncc(C5CC5)n4)cc32)cc1` [Example 380, N-[(1S)-1-[(1R)-6-(6-cyclopropylpyrazin-2-yl)indan-1-yl]-2-[4-(2,4-dimethylpyrazol-3-yl)anilino]-2-oxo-ethyl]-2-methyl-pyrazole-3-carboxamide], 0.1 to 1 µM. As for `Cn1cncc1-c1ccc(NC(=O)C(Cc2cc(-c3ccnc(N4CCCCC4)c3)ccc2Cl)NC(=O)c2ccnn2C)cc1` (centres unmarked) [Example 160, N-[1-[[2-chloro-5-[2-(1-piperidyl)-4-pyridyl]phenyl]methyl]-2-[4-(3-methylimidazol-4-yl)anilino]-2-oxo-ethyl]-2-methyl-pyrazole-3-carboxamide], the figure is 0.1 to 1 µM; as for `Cc1cnn(C)c1-c1ccc(NC(=O)[C@@H](NC(=O)C2(F)CC2)[C@@H]2CCCc3ccc(-c4ccnc(N5C[C@@H]6C[C@H]5CO6)c4)cc32)cc1` [Example 398, N-[(1S)-2-[4-(2,4-dimethylpyrazol-3-yl)anilino]-1-[(1R)-7-[2-[(1S,4S)-2-oxa-5-azabicyclo[2.2.1]heptan-5-yl]-4-pyridyl]tetralin-1-yl]-2-oxo-ethyl]-1-fluoro-cyclopropanecarboxamide], less than 0.1 µM.

With `Cn1cnnc1-c1ccc(NC(=O)C(Cc2cc(-c3cccc(C4(O)CCC4)c3)ccc2Cl)NC(=O)c2ccnn2C)cc1` (centres unmarked) [Example 144, N-[1-[[2-chloro-5-[3-(1-hydroxycyclobutyl)phenyl]phenyl]methyl]-2-[4-(4-methyl-1,2,4-triazol-3-yl)anilino]-2-oxo-ethyl]-2-methyl-pyrazole-3-carboxamide], the EC50 was in the range of 0.1 to 1 µM. As for `Cc1n[nH]c(C)c1-c1ccc(NC(=O)[C@@H](NC(=O)C2(F)CC2)[C@@H]2CCc3ccc(-c4cncc(N5C[C@@H]6C[C@H]5CO6)c4)cc32)cc1` [Example 377, N-[(1S)-2-[4-(3,5-dimethyl-1H-pyrazol-4-yl)anilino]-1-[(1R)-6-[5-[(1S,4S)-2-oxa-5-azabicyclo[2.2.1]heptan-5-yl]-3-pyridyl]indan-1-yl]-2-oxo-ethyl]-1-fluoro-cyclopropanecarboxamide], the figure is less than 0.1 µM; as for `Cc1nn(C)cc1-c1ccc(NC(=O)[C@@H](NC(=O)C2(F)CC2)[C@@H]2CCc3ccc(-c4ccnc(N5C[C@@H]6C[C@H]5CO6)c4)cc32)cc1` [Example 372, N-[(1S)-2-[4-(1,3-dimethylpyrazol-4-yl)anilino]-1-[(1R)-6-[2-[(1S,4S)-2-oxa-5-azabicyclo[2.2.1]heptan-5-yl]-4-pyridyl]indan-1-yl]-2-oxo-ethyl]-1-fluoro-cyclopropanecarboxamide], 0.1 to 1 µM. As for `CC(C)n1cc(-c2cccc(C(c3ccccc3)C(NC(=O)c3ccnn3C)C(=O)Nc3ccc(-c4cncn4C)cc3)c2)ccc1=O` (single isomer, unassigned; diastereomer 4) [Example 234, N-[1-[[3-(1-isopropyl-6-oxo-3-pyridyl)phenyl]-phenyl-methyl]-2-[4-(3-methylimidazol-4-yl)anilino]-2-oxo-ethyl]-2-methyl-pyrazole-3-carboxamide (Diastereomer 4)], the figure is 0.1 to 1 µM. As for `CN(C)Cc1cc(-c2ccc(Cl)c(CC(NC(=O)c3ccnn3C)C(=O)Nc3ccc(-c4nncn4C)cc3)c2)ccc1O` (centres unmarked) [Example 139, N-[1-[[2-chloro-5-[3-(dimethylaminomethyl)-4-hydroxy-phenyl]phenyl]methyl]-2-[4-(4-methyl-1,2,4-triazol-3-yl)anilino]-2-oxo-ethyl]-2-methyl-pyrazole-3-carboxamide], the figure is greater than 1 µM; as for `Cn1cnnc1-c1ccc(NC(=O)C(Cc2cc(-c3ccc(C#N)cc3)ccc2Cl)NC(=O)c2ccnn2C)cc1` (centres unmarked) [Example 308, N-[1-[[2-chloro-5-(4-cyanophenyl)phenyl]methyl]-2-[4-(4-methyl-1,2,4-triazol-3-yl)anilino]-2-oxo-ethyl]-2-methyl-pyrazole-3-carboxamide], greater than 1 µM. `Cc1n[nH]c(C)c1-c1ccc(NC(=O)[C@@H](NC(=O)C2(F)CC2)[C@@H]2CCCc3ccc(-c4cc(C)c(=O)n(C(C)C)c4)cc32)cc1` [Example 391, N-[(1S)-2-[4-(3,5-dimethyl-1H-pyrazol-4-yl)anilino]-1-[(1R)-7-(1-isopropyl-5-methyl-6-oxo-3-pyridyl)tetralin-1-yl]-2-oxo-ethyl]-1-fluoro-cyclopropanecarboxamide]: the EC50 was less than 0.1 µM. As for `Cn1cncc1-c1ccc(NC(=O)C(Cc2cc(-c3cccc(C(C)(C)N)c3)ccc2Cl)NC(=O)c2ccnn2C)cc1` (centres unmarked) [Example 176, N-[1-[[5-[3-(1-amino-1-methyl-ethyl)phenyl]-2-chloro-phenyl]methyl]-2-[4-(3-methylimidazol-4-yl)anilino]-2-oxo-ethyl]-2-methyl-pyrazole-3-carboxamide], the figure is less than 0.1 µM; as for `CC(C)n1cc(-c2ccc(Cl)c(C[C@H](NC(=O)C3(F)CC3)C(=O)Nc3ccc(-c4cncn4C)c(O)c3)c2)ccc1=O` [Example 133, N-[(1S)-1-[[2-chloro-5-(1-isopropyl-6-oxo-3-pyridyl)phenyl]methyl]-2-[3-hydroxy-4-(3-methylimidazol-4-yl)anilino]-2-oxo-ethyl]-1-fluoro-cyclopropanecarboxamide], 0.1 to 1 µM; as for `Cc1n[nH]c(C)c1-c1ccc(NC(=O)[C@@H](NC(=O)c2ccnn2C)[C@@H]2CCc3ccc(-c4cnn(C5CC5)c4)cc32)cc1` [Example 8, N-[(1S)-1-[(1R)-6-(1-cyclopropylpyrazol-4-yl)indan-1-yl]-2-[4-(3,5-dimethyl-1H-pyrazol-4-yl)anilino]-2-oxo-ethyl]-2-methyl-pyrazole-3-carboxamide], less than 0.1 µM. `CC(C)n1cc(-c2ccc(Cl)c(C[C@H](NC(=O)CC3CC3)C(=O)Nc3ccc(-c4nncn4C)cc3)c2)ccc1=O` [Example 116, (2S)-3-[2-chloro-5-(1-isopropyl-6-oxo-3-pyridyl)phenyl]-2-[(2-cyclopropylacetyl)amino]-N-[4-(4-methyl-1,2,4-triazol-3-yl)phenyl]propanamide]: the EC50 was greater than 1 µM. With `Cc1n[nH]cc1-c1ccc(NC(=O)C(NC(=O)OC2CC2)C(c2ccccc2)c2cccc(-c3ccc(=O)n(C(C)C)c3)c2)cc1` (single isomer, unassigned; diastereomer 1) [Example 242, cyclopropyl N-[1-[[3-(1-isopropyl-6-oxo-3-pyridyl)phenyl]-phenyl-methyl]-2-[4-(3-methyl-1H-pyrazol-4-yl)anilino]-2-oxo-ethyl]carbamate (Diastereomer 1)], the EC50 was greater than 1 µM. For `CN1CCOC[C@H]1c1cccc(-c2ccc(Cl)c(C[C@H](NC(=O)c3ccnn3C)C(=O)Nc3ccc(-c4cncn4C)cc3)c2)c1` [Example 218, N-[(1S)-1-[[2-chloro-5-[3-[(3R)-4-methylmorpholin-3-yl]phenyl]phenyl]methyl]-2-[4-(3-methylimidazol-4-yl)anilino]-2-oxo-ethyl]-2-methyl-pyrazole-3-carboxamide], the EC50 lay within 0.1 to 1 µM. Under `CC(C)n1cc(-c2ccc(Cl)c(CC(NC(=O)c3conc3C(C)(C)C)C(=O)Nc3ccc(-c4nncn4C)cc3)c2)ccc1=O` (centres unmarked) [Example 96, 3-tert-butyl-N-[1-[[2-chloro-5-(1-isopropyl-6-oxo-3-pyridyl)phenyl]methyl]-2-[4-(4-methyl-1,2,4-triazol-3-yl)anilino]-2-oxo-ethyl]isoxazole-4-carboxamide] stands 0.1 to 1 µM. Under `Cc1nccn1-c1ccc(NC(=O)C(Cc2cc(-c3ccc(=O)n(C(C)C)c3)ccc2Cl)NC(=O)c2ccnn2C)cc1` (centres unmarked) [Example 68, N-[1-[[2-chloro-5-(1-isopropyl-6-oxo-3-pyridyl)phenyl]methyl]-2-[4-(2-methylimidazol-1-yl)anilino]-2-oxo-ethyl]-2-methyl-pyrazole-3-carboxamide] stands greater than 1 µM. On to `Cn1cnnc1-c1ccc(NC(=O)C(Cc2cc(-c3ccc(O)c(C(=O)N4CCNCC4)c3)ccc2Cl)NC(=O)c2ccnn2C)cc1` (centres unmarked) [Example 173, N-[1-[[2-chloro-5-[4-hydroxy-3-(piperazine-1-carbonyl)phenyl]phenyl]methyl]-2-[4-(4-methyl-1,2,4-triazol-3-yl)anilino]-2-oxo-ethyl]-2-methyl-pyrazole-3-carboxamide], for which the EC50 is greater than 1 µM.

With `CC(C)n1nccc1C(=O)N[C@@H](Cc1cc(-c2ccc(=O)n(C(C)C)c2)ccc1Cl)C(=O)Nc1ccc(-c2nncn2C)cc1` [Example 91, N-[(1S)-1-[[2-chloro-5-(1-isopropyl-6-oxo-3-pyridyl)phenyl]methyl]-2-[4-(4-methyl-1,2,4-triazol-3-yl)anilino]-2-oxo-ethyl]-2-isopropyl-pyrazole-3-carboxamide], the EC50 fell in the range of 0.1 to 1 µM.

As a reminder, the EC50 is the concentration needed to bring the measured effect to its halfway point.
